Measured values taken from patent US5736523A, “Antineoplastic heteronapthoquinones” (Biochem Pharma Inc., priority 1995, dated 1998).
Where a name gives a salt, the structure may show the parent alone. Read-outs that look alike come from different tables or passages of the source.

Columns and labels:
Format in all cases: cell-based, human
[1] = test system: SKVLB (Ovarian; multidrug resistant); experiment: In vitro cytotoxicity, microculture tetrazolium (MTT) assay, SKVLB; conditions: for VLB/OV3: ratio SKVLB / SKOV3
Experimental: (§1) In Vitro Cytotoxicity--Microculture Tetrazolium Assay
(§2) The microculture tetrazolium assay was used to test in vitro cytotoxicity. This assay is described in Plumb, J. A. et al., 1989 Cancer Research 49, 4435-4440, which is herein incorporated by reference. The cytotoxicity of compounds towards tumor cells is measured in vitro using the assay. This assay method is based upon the ability of live, but not dead cells to reduce the yellow water soluble dye 3-(4;5-dimethylthiazol-2-yl)-2,5-diphenyltetrazolium bromide (MTT) to its water insoluble purple formazan product.
(§3) Human Tumor Cell lines, used were:
SKVLB (Ovarian; multidrug resistant)--Dr. V. Ling, Ontario
(§4) The cells were maintained in exponential growth in culture in minimal essential media (MEM) supplemented with non-essential amino acids, and containing 15% (v/v) fetal bovine serum, 5 mM L-glutamine, 1 mM sodium pyruvate, and 0.1 U/ml insulin. All cell lines were grown at 37° C. in an atmosphere of 5% CO2 in air.
(§5) Test compounds: 20 mM in DMSO and diluted to a final concentration of 200 μM in culture medium before use.
(§6) The following is the generic description of the assay method. It should be noted that although the conditions described work well with the cells listed above, the initial plating density and the MTT concentration used should be verified for each new cell line used to test compounds.
(§7) For each assay, doxorubicin is included as an inter-assay standard. This allows us to monitor the behaviour of the assay in general, and in particular, to check that the SKVLB line has maintained its resistant phenotype.
(§8) The plate layout is done in the following manner: The assays are carried out in 96-well (8 well×12 well) microtiter plates. Serial dilutions of the compound are tested along the length of the plate. A 1:3 serial dilution of compound in culture medium covers a concentration range from 100 μM to 1.7 nM. Each concentration of compound is tested in quadruplet, allowing two compounds to be tested per plate. Wells containing no cells (blank) and cells with no test compound (control) are included on each plate.
(§9) Cells are plated out in 100 μl of culture medium in the microtiter plates at a density of around 1,500-4,000 cells per well. The plates are incubated overnight to allow the cells to become adherent after which the test compound is added (100 μl of appropriate dilution per well). The cells are incubated with test compound at 37° C. for 48 h after which the compound is replaced with fresh medium. After a further 48 h incubation at 37° C., 50 μl of MTT solution (2 mg/ml) is added to each well. The plates are incubated in the dark for 4 h at 37° C. after which the medium is removed. The MTT formazan product is extracted from the cells by the addition of 200 μl DMSO followed by 50 μl of Sorensen's buffer. The plates are shaken briefly and the absorbance at 570 nm is read using a Molecular Devices UV max plate reader. Curves are fit to the MTT assay data using a four parameter logistic equation, and the data are normalized to fit a 0% to 100% survival scale.

[2] = test system: HT 29 (Colon adenocarcinoma); experiment: In vitro cytotoxicity, microculture tetrazolium (MTT) assay, HT 29
Experimental: as §1, §2, §3
HT 29 (Colon adenocarcinoma) ATCC catalog #HTB-38.
as §4, §5, §6, §7, §8, §9

[3] = test system: SKOV3 (Ovarian adenocarcinoma); experiment: In vitro cytotoxicity, microculture tetrazolium (MTT) assay, SKOV3
Experimental: as §1, §2, §3
SKOV3 (Ovarian adenocarcinoma)--provided by Dr. V. Ling,
as §4, §5, §6, §7, §8, §9

Lox (Melanoma) = experiment: In vitro cytotoxicity, microculture tetrazolium (MTT) assay, Lox
Experimental: as §1, §2, §3
Lox (Melanoma)--Southern Research Institute.
as §4, §5, §6, §7, §8, §9

[4] = test system: T47D (Ductal carcinoma of breast); experiment: In vitro cytotoxicity, microculture tetrazolium (MTT) assay, T47D
Experimental: as §1, §2, §3
T47D (Ductal carcinoma of breast)--ATCC catalog #HTB-133.
as §4, §5, §6, §7, §8, §9

[5] = SKVLB, multidrug resistant, read-out: IC50
[6] = Homo sapiens, HT-29, HT29, read-out: IC50

`CC(=O)C1CC2=C(C(=O)c3ccccc3C2=O)C(OC2CC(NC(=O)C(F)(F)F)C(O)C(C)O2)O1` (centres unmarked) [BCH2145] was tested, and the IC50 [1, 5] was 13.4 µM, the VLB/OV3 [1] was 1.64 and the IC50 ([2]; HT29, read-out: IC50) was 2.48 µM. The IC50 ([3]; SKOV3, read-out: IC50) was 8.19 µM and the IC50 (Lox (Melanoma); read-out: IC50) was 0.83 µM.
`COc1cccc2c1C(=O)c1c(O)c3c(c(O)c1C2=O)C[C@@](O)(C(=O)CO)C[C@@H]3O[C@H]1C[C@H](N)[C@H](O)[C@H](C)O1` [Adriamycin, reference compound] showed an IC50 ([4]; Homo sapiens) of 0.07 µM, an IC50 ([2]; Homo sapiens, HT-29) of 0.09 µM and an IC50 ([3]; Homo sapiens, SK-OV-3) of 0.012 µM. For the same compound, the IC50 (Lox (Melanoma); Homo sapiens) was 0.034 µM.
Work on `CC[C@H]1CC2=C(C(=O)c3ccccc3C2=O)[C@H](NC(C)=O)O1` (relative stereo) [BCH2027, Trans-5,10-dioxo-1-acetamido-3-ethyl-3,4,5,10-tetrahydro-1H-naphtho-[2,3-c]-pyran] yielded an IC50 ([4]; Homo sapiens) of 23.3 µM, a VLB/OV3 [1] of 4.02 and an IC50 (Lox (Melanoma); Homo sapiens) of 3.04 µM.
`CC(=O)C1CC2=C(C(=O)c3ccccc3C2=O)C(OCC2CCN(C(=O)OC(C)(C)C)CC2)O1.Cl` (racemic) [BCH2068, Methyl-(1-O-[N-BOC-4-piperidinemethanol]-5,10-dioxo-3,4,5,10-tetrahydronaphthaleno-[2,3-c]pyran-3-yl) ketone, racemic, hydrochloride] gave an IC50 ([4]; read-out: IC50) of 0.422 µM, an IC50 [1, 5] of 1.2 µM and a VLB/OV3 [1] of 1. For the same compound, the IC50 ([2]; HT29, read-out: IC50) was 0.13 µM and the IC50 (Lox (Melanoma); read-out: IC50) was 1.3 µM.
For `CC(=O)C1CC2=C(C(=O)c3ccccc3C2=O)C(O)O1` (centres unmarked) [BCH1148, Methyl (1-hydroxy-5,10-dioxo-3,4,5,10-tetrahydronaphtho [2,3-C]pyran-3-yl) ketone], the IC50 [2, 6] was greater than 10 µM.
`COP(=O)(CC(=O)[C@H]1CC2=C(C(=O)c3ccccc3C2=O)[C@H](O[C@H]2C[C@H](NC(=O)C(F)(F)F)[C@H](O)[C@H](C)O2)O1)OC` [BCH1690, (1'S,1S,3R)-1-(2',3',6'-trideoxy-3'-trifluoroacetamido-L-lyxohexopyranose)-3-dimethylphosphonoacetyl-5,10-dioxo-3,4,5-10-tetrahydro-1H-naphtho-[2,3-c]-pyran] was tested, and the IC50 ([1]; Homo sapiens) was 13.7 µM, the VLB/OV3 [1] was 7.70 and the IC50 ([2]; Homo sapiens, HT-29) was 3.01 µM. It also gave an IC50 ([3]; Homo sapiens, SK-OV-3) of 1.78 µM and an IC50 (Lox (Melanoma); Homo sapiens) of 1.62 µM.
Compound `CC(=O)O[C@@H]1[C@H](C)O[C@@H](OC2OC(C(C)=O)CC3=C2C(=O)c2ccccc2C3=O)C[C@@H]1OC(C)=O` (mixture of isomers) [BCH2118, (1'S,1S,3R) and (1'S,1R,3S)-methyl-(1-[dideoxy-2',6'-diacetoxy-3',4'-L-lyxohexopyranose]-5,10-dioxo-3,4,5,10-tetrahydronaphtho-[2,3-c]-pyran-3-yl) ketone] has an IC50 ([4]; read-out: IC50) of 0.244 µM, an IC50 [1, 5] of 0.79 µM and a VLB/OV3 [1] of 6.68. The IC50 ([2]; HT29, read-out: IC50) was 0.203 µM and the IC50 ([3]; SKOV3, read-out: IC50) was 0.12 µM.
Work on `COP(=O)(CC(=O)[C@@H]1CC2=C(C(=O)c3ccccc3C2=O)[C@@H](O[C@H]2C[C@H](NC(=O)C(F)(F)F)[C@H](O)[C@H](C)O2)O1)OC` [BCH1689, (1'S,1R,3S)-1-(2',3',6'-trideoxy-3'-trifluoroacetamido-L-lyxohexopyranose)-3-dimethylphosphonoacetyl-5,10-dioxo-3,4,5-10-tetrahydro-1H-naphtho-[2,3-c]-pyran] yielded an IC50 ([1]; Homo sapiens) of 16.5 µM, a VLB/OV3 [1] of 5.94 and an IC50 ([2]; Homo sapiens, HT-29) of 3.66 µM. The IC50 ([3]; Homo sapiens, SK-OV-3) was 2.78 µM and the IC50 (Lox (Melanoma); Homo sapiens) was 1.72 µM.
For `C=C(C)[C@H]1CC2=C(C(=O)c3ccccc3C2=O)[C@H](OC)O1` (relative stereo) [BCH2148, (trans)-5,10-dioxo-3-isopropenyl-1-methoxy-3,4,5,10-tetrahydro-1H-naphtho-[2,3-c]-pyran], the VLB/OV3 [1] was 0.79 and the IC50 (Lox (Melanoma); Homo sapiens) was 1.55 µM.
In the case of `COC1OC(C(=O)NCCCN2CCCC2=O)=CC2=C1C(=O)c1ccccc1C2=O` (centres unmarked) [BCH2166, 1-methoxy-3-(3-N-pyrrolidinomylpropylaminocarbonyl)-5,10-dioxo-5,10-dihydro-1H-naphtho-[2,3-c]-pyran], the IC50 ([4]; Homo sapiens, read-out: IC50) is reported as 0.237 µM, the IC50 ([1]; Homo sapiens, SKVLB, multidrug resistant, read-out: IC50) is reported as 0.495 to 1.2 µM and the VLB/OV3 [1] is reported as 2.73. For the same compound, the IC50 [2, 6] was 0.443 to 1.2 µM and the IC50 ([3]; Homo sapiens, SK-OV-3, SKOV3, read-out: IC50) was 0.14 to 0.181 µM.
Compound `COC1OC(C(=O)NCCN2CCOCC2)=CC2=C1C(=O)c1ccccc1C2=O` (centres unmarked) [BCH2171, 1-methoxy-3-[2-(N-morpholine)ethylaminocarbonyl]-5,10-dioxo-5,10-dihydro-1H-naphtho-[2,3-c]-pyran] has an IC50 ([4]; Homo sapiens, read-out: IC50) of 0.398 µM, a VLB/OV3 [1] of 2.16 and an IC50 ([2]; HT29, read-out: IC50) of 0.219 µM.
For “(1'S,1S,3R)-methyl-(6 and 9-hydroxy-1-[2',3',6'-trideoxy-3'-trifluoroacetamido-4'-hydroxy-L-lyxohexopyranose]-5,10-dioxo-3,4,5,10-tetrahydronaphtho-[2,3-c]-pyran-3-yl-ketone [BCH2078]”, the IC50 ([4]; read-out: IC50) was 0.507 µM, the IC50 [1, 5] was 2.24 µM and the VLB/OV3 [1] was 5.41. For the same compound, the IC50 ([2]; HT29, read-out: IC50) was 0.269 µM and the IC50 ([3]; SKOV3, read-out: IC50) was 0.414 µM.
In the case of `COC(=O)[C@@H](N)COC1OC(C(C)=O)CC2=C1C(=O)c1ccccc1C2=O` (mixture of isomers) [BCH1654, (1S,2'S,3R) and (1R,2'S,3S)-methyl-(1-[O-serinemethyl ester]-5,10-dioxo-3,4,5,10-tetrahydronaphtaleno [2,3-C]pyran-3-yl) ketone hydrochloride], the VLB/OV3 [1] is reported as 5.25.
For `COC1OC(C(=O)NCCCN(C)C)=CC2=C1C(=O)c1ccccc1C2=O` (centres unmarked) [BCH2051, 1-Methoxy-5,10-dioxo-5,10-dihydro-1H-naphtho[2,3-c]pyran-3-[N-(3-dimethylamino-propyl)carboxamide] hydrochloride monohydrate], the “multidrug resistance / effectiveness in multidrug resistant cell line” value ([1]; SKVLB cell line) was “significantly avoiding multidrug resistance” and the “in vitro antitumor potency” value ([1]; in vitro) was “intense in vitro antitumor potency”.
`COCC1(COC)CC2=C(C(=O)c3ccccc3C2=O)[C@H](O[C@H]2C[C@H](NC(=O)C(F)(F)F)[C@H](O)[C@H](C)O2)O1` [BCH1697] was tested, and the VLB/OV3 [1] was 3.57.
In the case of `CC(C)C(=O)[C@@H]1CC2=C(C(=O)c3ccccc3C2=O)[C@@H](O[C@H]2C[C@H](NC(=O)C(F)(F)F)[C@H](O)[C@H](C)O2)O1` [BCH2112, (1'S,1R,3S)-isopropyl-[1-(2',3',6'-trideoxy-3'-trifluoroacetamido-L-lyxohexopyranose)-5,10-dioxo-3,4,5,10-tetrahydro-1H-naphtho-[2,3-c]-pyranyl]-ketone], the VLB/OV3 [1] is reported as 15.96-17.
`COC[C@@H]1CC2=C(C(=O)c3ccccc3C2=O)[C@@H](O[C@H]2C[C@H](NC(=O)C(F)(F)F)[C@H](O)[C@H](C)O2)O1` [BCH1691, (1'S,1R,3S)-5,10-dioxo-3-methoxymethyl-1-(2',3',6'-trideoxy-3'-trifluoroacetamido-L-lyxohexopyranose)-3,4,5,10-tetrahydro-1H-naphtho-[2,3-c]-pyran] gave a VLB/OV3 [1] of 2.10.
`CC[C@H]1CO[C@H](O[C@H]2C[C@H](NC(=O)C(F)(F)F)[C@H](O)[C@H](C)O2)C2=C1C(=O)c1ccccc1C2=O` [BCH2091, (1'S,1R,4R)-5,10-dioxo-4-ethyl-1-(2',3',6'-trideoxy-3'-trifluoroacetamido-L-lyxohexopyranose)-3,4,5,10-tetrahydro-1H-naphtho-[2,3-c] pyran] gave a VLB/OV3 [1] of 3.
`CC(=O)O[C@H]1[C@@H](I)[C@H](O[C@@H]2O[C@@H](C(C)=O)CC3=C2C(=O)c2ccccc2C3=O)O[C@@H](C)[C@H]1OC(C)=O` [BCH1667, (1'S,1S,3R)-methyl-(1-[2',6'-dideoxy-3',4'-diacetoxy-2'-iodo-L-lyxohexopyranose]-5,10-dioxo-3,4,5,10-tetrahydronaphtho [2,3-c]-pyran-3-yl) ketone] gave a VLB/OV3 [1] of 7.32.
